Results reported in patent US10588317B2, “Isoxazoline-substituted benzamides and analogues as insecticides” (priority 2015, dated 2020).

Columns and labels:
Assay type in all cases: in vivo
Diabrotica balteata = Diabrotica balteata (corn root worm), sprayed maize sprouts; conditions: 96 h, application rate 200 ppm, L2 larvae, 4 days after infestation, read-out: effect in at least one of the two categories (mortality or growth inhibition)
Method in brief: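 Read-out at 4 days post-infestation: mortality and growth inhibition relative to untreated samples. Test solutions (200 ppm, from DMSO stocks) were sprayed onto agar-held maize sprouts, which after drying received 6–10 L2 larvae per well.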

Euschistus heros = Euschistus heros (neotropical brown stink bug), sprayed soybean leaves; conditions: 120 h, application rate 200 ppm, N2 nymphs, 5 days after infestation, read-out: effect in at least one of the two categories (mortality or growth inhibition)
Method in brief: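 Scored 5 days post-infestation versus untreated controls, for both mortality and growth inhibition: N2 nymphs placed on agar-mounted soybean leaves previously sprayed at 200 ppm with aqueous test solutions from DMSO stocks and left to dry.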

Myzus persicae = Myzus persicae (green peach aphid): feeding/contact activity; conditions: 144 h, application rate 200 ppm, aphid population of mixed ages, 6 days after infestation, read-out: mortality
Procedure: Sunflower leaf discs were placed onto agar in a 24-well microtiter plate and sprayed with aqueous test solutions prepared from 10'000 ppm DMSO stock solutions. After drying, the leaf discs were infested with an aphid population of mixed ages. The samples were assessed for mortality 6 days after infestation.

Plutella xylostella = Plutella xylostella (diamond back moth), artificial diet; conditions: 120 h, application rate 200 ppm, L2 larvae, 5 days after infestation, read-out: effect in at least one of the two categories (mortality or growth inhibition)
Method in brief: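 L2 larvae (10-15 per well) fed on compound-treated, dried artificial diet; test solutions diluted in water from 10'000 ppm DMSO stocks. Readout 5 days post-infestation as mortality or growth inhibition versus untreated diet, with at least 80% effect at 200 ppm as threshold.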

Spodoptera littoralis [1] = assay: Spodoptera littoralis (Egyptian cotton leaf worm), sprayed cotton leaf discs; conditions: foliar, 72 h, application rate 200 ppm, L1 larvae, 3 days after infestation, read-out: control (mortality, anti-feeding effect, growth inhibition)
Method in brief: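 Five first-instar larvae placed on dried cotton leaf discs (on agar) previously sprayed with aqueous dilutions of 10'000 ppm DMSO stocks. Scored at 3 days against untreated discs for mortality, feeding inhibition and growth inhibition; any category above untreated counts as control.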

Spodoptera littoralis [2] = assay: Spodoptera littoralis (Egyptian cotton leaf worm), uptake by lettuce roots from agar; conditions: 144 h, read-out: effect in at least one of the three categories (mortality, anti-feeding, or growth inhibition)
Method in brief: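 Systemic test: Spodoptera eggs placed on lettuce leaves from seedlings raised 7 days on agar containing the compound (diluted from 10'000 ppm DMSO stock). Six days after infestation, larvae scored against untreated controls for mortality, feeding deterrence and growth inhibition.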

Tetranychus urticae = Tetranychus urticae (two-spotted spider mite): feeding/contact activity; conditions: 192 h, application rate 200 ppm, mixed population (mobile stages), 8 days after infestation, read-out: mortality
Procedure: Bean leaf discs on agar in 24-well microtiter plates were sprayed with aqueous test solutions prepared from 10'000 ppm DMSO stock solutions. After drying the leaf discs were infested with a mite population of mixed ages. The samples were assessed for mortality on mixed population (mobile stages) 8 days after infestation.

Thrips tabaci = Thrips tabaci (onion thrips): feeding/contact activity; conditions: 144 h, application rate 200 ppm, Thrips population of mixed ages, 6 days after infestation, read-out: mortality
Procedure: Sunflower leaf discs were placed on agar in 24-well microtiter plates and sprayed with aqueous test solutions prepared from 10'000 ppm DMSO stock solutions. After drying the leaf discs were infested with a Thrips population of mixed ages. The samples were assessed for mortality 6 days after infestation.

C=Cc1cc(C2=NOC(c3cc(Cl)cc(Cl)c3)(C(F)(F)F)C2)ccc1C(=O)NC1CON(S(C)(=O)=O)C1 (centres unmarked) [Compound A65]
≥ 80%: percent effect (mortality or growth inhibition) at 200 ppm (Diabrotica balteata) | percent effect (mortality or growth inhibition) at 200 ppm (Euschistus heros) | mortality at 200 ppm (Myzus persicae) | percent effect (mortality or growth inhibition) at 200 ppm (Plutella xylostella) | mortality at 200 ppm (Spodoptera littoralis [1]) | percent control (mortality, anti-feedant effect or growth inhibition) at 12.5 ppm (Spodoptera littoralis [2]) | mortality at 200 ppm (Tetranychus urticae) | mortality at 200 ppm (Thrips tabaci)

Cc1cc(C2=NO[C@@](c3cc(Cl)cc(C(F)(F)F)c3)(C(F)(F)F)C2)ccc1C(=O)NC1CON(S(C)(=O)=O)C1 (some centres unmarked) [Compound A20]
≥ 80%: percent effect (mortality or growth inhibition) at 200 ppm (Diabrotica balteata) | percent effect (mortality or growth inhibition) at 200 ppm (Euschistus heros) | mortality at 200 ppm (Myzus persicae) | percent effect (mortality or growth inhibition) at 200 ppm (Plutella xylostella) | mortality at 200 ppm (Spodoptera littoralis [1]) | percent control (mortality, anti-feedant effect or growth inhibition) at 12.5 ppm (Spodoptera littoralis [2]) | mortality at 200 ppm (Tetranychus urticae) | mortality at 200 ppm (Thrips tabaci)

CN(C)S(=O)(=O)N1C[C@@H](NC(=O)c2ccc(C3=NO[C@@](c4cc(Cl)c(Cl)c(Cl)c4)(C(F)(F)F)C3)cc2Cl)CO1 [Compound A109, 2-chloro-N-[(4R)-2-(dimethylsulfamoyl)isoxazolidin-4-yl]-4-[(5S)-5-(3,4,5-trichlorophenyl)-5-(trifluoromethyl)-4H-isoxazol-3-yl]benzamide]
≥ 80%: percent effect (mortality or growth inhibition) at 200 ppm (Diabrotica balteata) | percent effect (mortality or growth inhibition) at 200 ppm (Euschistus heros) | mortality at 200 ppm (Myzus persicae) | percent effect (mortality or growth inhibition) at 200 ppm (Plutella xylostella) | mortality at 200 ppm (Spodoptera littoralis [1]) | percent control (mortality, anti-feedant effect or growth inhibition) at 12.5 ppm (Spodoptera littoralis [2]) | mortality at 200 ppm (Tetranychus urticae) | mortality at 200 ppm (Thrips tabaci)

CS(=O)(=O)N1C[C@@H](NC(=O)c2ccc(C3=NO[C@@](c4cc(Cl)c(F)c(Cl)c4)(C(F)(F)F)C3)cc2Cl)CO1 [Compound A144, 2-chloro-4-[(5S)-5-(3,5-dichloro-4-fluoro-phenyl)-5-(trifluoromethyl)-4H-isoxazol-3-yl]-N-[(4R)-2-methylsulfonylisoxazolidin-4-yl]benzamide]
≥ 80%: percent effect (mortality or growth inhibition) at 200 ppm (Diabrotica balteata) | percent effect (mortality or growth inhibition) at 200 ppm (Euschistus heros) | mortality at 200 ppm (Myzus persicae) | percent effect (mortality or growth inhibition) at 200 ppm (Plutella xylostella) | mortality at 200 ppm (Spodoptera littoralis [1]) | percent control (mortality, anti-feedant effect or growth inhibition) at 12.5 ppm (Spodoptera littoralis [2]) | mortality at 200 ppm (Tetranychus urticae) | mortality at 200 ppm (Thrips tabaci)

CCS(=O)(=O)N1CC(NC(=O)c2ccc(C3=NO[C@@](c4cc(Cl)cc(C(F)(F)F)c4)(C(F)(F)F)C3)cc2C)CO1 (some centres unmarked) [Compound A42]
≥ 80%: percent effect (mortality or growth inhibition) at 200 ppm (Diabrotica balteata) | percent effect (mortality or growth inhibition) at 200 ppm (Euschistus heros) | mortality at 200 ppm (Myzus persicae) | percent effect (mortality or growth inhibition) at 200 ppm (Plutella xylostella) | mortality at 200 ppm (Spodoptera littoralis [1]) | percent control (mortality, anti-feedant effect or growth inhibition) at 12.5 ppm (Spodoptera littoralis [2]) | mortality at 200 ppm (Tetranychus urticae) | mortality at 200 ppm (Thrips tabaci)

Cc1cc(C2=NO[C@@](c3cc(Cl)cc(C(F)(F)F)c3)(C(F)(F)F)C2)ccc1C(=O)N[C@H]1CON(S(C)(=O)=O)C1 [Compound A75]
≥ 80%: percent effect (mortality or growth inhibition) at 200 ppm (Diabrotica balteata) | percent effect (mortality or growth inhibition) at 200 ppm (Euschistus heros) | mortality at 200 ppm (Myzus persicae) | percent effect (mortality or growth inhibition) at 200 ppm (Plutella xylostella) | mortality at 200 ppm (Spodoptera littoralis [1]) | percent control (mortality, anti-feedant effect or growth inhibition) at 12.5 ppm (Spodoptera littoralis [2]) | mortality at 200 ppm (Tetranychus urticae) | mortality at 200 ppm (Thrips tabaci)

Cc1cc(C2=NO[C@@](c3cc(Cl)c(Cl)c(Cl)c3)(C(F)(F)F)C2)ccc1C(=O)NC1CON(S(=O)(=O)N(C)CC#N)C1 (stereo partly drawn) [Compound A87, N-[2-[cyanomethyl(methyl)sulfamoyl]isoxazolidin-4-yl]-2-methyl-4-[(5S)-5-(3,4,5-trichlorophenyl)-5-(trifluoromethyl)-4H-isoxazol-3-yl]benzamide]
≥ 80%: percent effect (mortality or growth inhibition) at 200 ppm (Diabrotica balteata) | percent effect (mortality or growth inhibition) at 200 ppm (Euschistus heros) | mortality at 200 ppm (Myzus persicae) | percent effect (mortality or growth inhibition) at 200 ppm (Plutella xylostella) | mortality at 200 ppm (Spodoptera littoralis [1]) | percent control (mortality, anti-feedant effect or growth inhibition) at 12.5 ppm (Spodoptera littoralis [2]) | mortality at 200 ppm (Tetranychus urticae) | mortality at 200 ppm (Thrips tabaci)

Cc1cc(C2=NOC(c3cc(Cl)cc(Cl)c3)(C(F)(F)Cl)C2)ccc1C(=O)NC1CON(S(C)(=O)=O)C1 (centres unmarked) [Compound A64]
≥ 80%: percent effect (mortality or growth inhibition) at 200 ppm (Diabrotica balteata) | percent effect (mortality or growth inhibition) at 200 ppm (Euschistus heros) | mortality at 200 ppm (Myzus persicae) | percent effect (mortality or growth inhibition) at 200 ppm (Plutella xylostella) | mortality at 200 ppm (Spodoptera littoralis [1]) | percent effect (mortality, anti-feeding or growth inhibition) at 12.5 ppm (Spodoptera littoralis [2]; test rate 12.5 ppm, eggs, 6 days after infestation) | mortality at 200 ppm (Tetranychus urticae) | mortality at 200 ppm (Thrips tabaci)

CNS(=O)(=O)N1C[C@@H](NC(=O)c2ccc(C3=NO[C@@](c4cc(Cl)c(F)c(Cl)c4)(C(F)(F)F)C3)cc2C)CO1 [Compound A137, 4-[(5S)-5-(3,5-dichloro-4-fluoro-phenyl)-5-(trifluoromethyl)-4H-isoxazol-3-yl]-2-methyl-N-[(4R)-2-(methylsulfamoyl)isoxazolidin-4-yl]benzamide]
≥ 80%: percent effect (mortality or growth inhibition) at 200 ppm (Diabrotica balteata) | percent effect (mortality or growth inhibition) at 200 ppm (Euschistus heros) | mortality at 200 ppm (Myzus persicae) | percent effect (mortality or growth inhibition) at 200 ppm (Plutella xylostella) | mortality at 200 ppm (Spodoptera littoralis [1]) | percent control (mortality, anti-feedant effect or growth inhibition) at 12.5 ppm (Spodoptera littoralis [2]) | mortality at 200 ppm (Tetranychus urticae) | mortality at 200 ppm (Thrips tabaci)

CCN(C)S(=O)(=O)N1C[C@@H](NC(=O)c2ccc(C3=NO[C@@](c4cc(Cl)c(F)c(Cl)c4)(C(F)(F)F)C3)cc2C)CO1 [Compound A140, 4-[(5S)-5-(3,5-dichloro-4-fluoro-phenyl)-5-(trifluoromethyl)-4H-isoxazol-3-yl]-N-[(4R)-2-[ethyl(methyl)sulfamoyl]isoxazolidin-4-yl]-2-methyl-benzamide]
≥ 80%: percent effect (mortality or growth inhibition) at 200 ppm (Diabrotica balteata) | percent effect (mortality or growth inhibition) at 200 ppm (Euschistus heros) | mortality at 200 ppm (Myzus persicae) | percent effect (mortality or growth inhibition) at 200 ppm (Plutella xylostella) | mortality at 200 ppm (Spodoptera littoralis [1]) | percent control (mortality, anti-feedant effect or growth inhibition) at 12.5 ppm (Spodoptera littoralis [2]) | mortality at 200 ppm (Tetranychus urticae) | mortality at 200 ppm (Thrips tabaci)
